Measurements from US9725430B2, “Use of small molecule inhibitors targeting EYA tyrosine phosphatase” (Children's Hospital Medical Center, priority 2013, dated 2017).

How the values were obtained:
[1] = tested on: HUVECs; assay: HUVEC tubulogenesis on Matrigel; assay type: cell-based, human; details: for tube formation on Matrigel: HUVEC
Text: Primary endothelial cells (ECs) on basement membrane rapidly attach, align themselves and form capillary-like tubules with lumens and tight cell-cell contacts. […] To better understand the stage in matrigel tube-formation affected by compound 1g cells plated on growth-factor reduced matrigel and treated with either vehicle or compound 1g were followed. Differences become apparent within the first two hours and were clearly visible at the 6-hour time-point. The ECs are much less organized in the presence of compound 1g. […] The effect of compound 1g on tube formation was attenuated in the presence of high concentrations of fetal bovine serum (FBS), likely reflecting non-specific protein binding.
The EYA inhibitors were also tested in tubulogenesis assays. The tubulogenesis assays were performed in 15-well micro-slide (ibidi LLC, Verona Wis.), using growth factor-reduced matrigel (BD Bioscience, Billerica, Mass.). The matrix was prepared by loading 10 μl of matrigel in each micro-slide well and allowing it to solidify for 30 minutes at 37° C. HUVECs were trypsinized and resuspended at 100.000 cell/ml in EBM+2.5% FBS. 50 μl (5,000 cell) were loaded on top of the solidified matrigel and the preparation was incubated for 20 hours at 37° C. in a humidified incubator in a 5% CO2 atmosphere. Bright field images were taken using an inverted microscope at 2.5× magnification, which allowed imaging of the whole well in two pictures that were later merged in Photoshop. Tubular structures were traced and counted using NeuroJ (NIH, USA). In experiments with inhibitor, the inhibitor was added to the cell suspension before loading. Each sample was loaded in triplicate, and each treatment was repeated for reproducibility.

[2] = tested on: retinal vasculature; assay: Mouse model of oxygen-induced retinopathy; assay type: in vivo, mice; details: 100 or 50 pmoles injected at P12, analyzed at P16
Text: The mouse model of oxygen-induced retinopathy mimics the retinopathy characteristic of proliferative retiopathy conditions such as retinopathy of prematurity and diabetic retinopathy. […] The resulting retinal hypoxia after day 12, when pups were brought back to 20% O2, induced excessive hypoxia-driven angiogenesis. A characteristic large avascular area at the center of the retina and excessive regrowth of superficial vessels (pre-retinal neovascular tufts) in the mid-peripheral region was observed. […] In contrast, inhibition of either Vegf or Vegfr2 in OIR experiments suppresses both neovascular tuft formation and revascularization.

[3] = tested on: HUVECs; assay: HUVEC transwell migration; assay type: cell-based, human; details: 5 μM
Text: (§1) In order to determine whether EYA3 knock down would affect cell migration, a modified Boyden chamber assay was used to measure HUVEC migration. Briefly, human umbilical vein endothelial cells (HUVECs) were purchased from Lonza (Walkersville, Md.) and maintained in the endothelial cell growth medium (PromoCell, Hleidelberg, Germany), under a 5% CO2 atmosphere. MCF10A cells from ATCC were stably transfected with either pcDNA 3.2N5-DEST (vector control), V5-EYA2 or V5-EYA2(D250N). Transwell migration experiments were performed as previously described (Pandey, R. N. et al. Oncogene 29, 3715-3722, (2010)).

[4] = tested on: MCF10A(EYA2) cells; assay: Transwell migration of MCF10A-EYA2 cells; assay type: cell-based; details: 7.5 μM
Text: The tyrosine phosphatase activity of Eya3 and Eya2 promotes single cell motility in breast cancer cells (Pandey, R. N. et al. Oncogene (2010) 29:3715-3722, incorporated by reference in its entirety). EYA2 is over-expressed in breast cancers and is associated with increased metastasis and a poorer outcome (Farabaugh, et al. Oncogene (2011) 259). […] Overexpression of EYA2, but not the tyrosine-phosphatase dead mutant, promoted cell motility (FIG. 2a). […] This effect was dose-dependent (FIG. 2d) and compound (1a) was able to reduce cell motility by over 50% at the lowest concentration (1 μM) tested.
as §1

[5] = tested on: HUVECs; assay: HUVEC proliferation (MTT); assay type: cell-based, human; details: 5 μM, 24 hours
[6] = biological target: PTP1B (Homo sapiens (Human), UniProt P18031); assay: PTP1B-catalyzed pNPP hydrolysis; assay type: biochemical; details: pNPP substrate
Procedure: The catalytic domain of human Eya2 (“hEYA2(ED)”) was similarly sub-cloned as a polyhistidine fusion construct in the vector pDEST-527. Fusion protein was purified by NiNTA chromatography and followed by size-exclusion chromatography over a Superdex-75 column. The relative purity of protein samples was determined using SDS-PAGE. PTP1B was purified as described previously (Rayapureddi, J. P. et al. Nature 426, 295-298 (2003), incorporated by reference in its entirety).
An inhibitory assay was conducted using the previously described p-nitrophenylphosphate assay (Rayapureddi, J. P. et al. Nature 426, 295-298 (2003)). Briefly, ED was incubated in a reaction mixture containing 20 mM MES pH 6, 2 mM MgCl2, 125 μM inhibitor, 3.4 mM para-nitrophenol phosphate (pNPP) and 0.01 μg/μL enzyme.
PTP1B is a classical Cys-based tyrosine phosphatase.

[7] = tested on: developing zebrafish vasculature; assay: Zebrafish model of angiogenesis; assay type: in vivo; details: exposure from 5.25 hpf, analysis at 24 hpf; compound 1 at 0.25 μM
Procedure: Embryos (FLK1-GFP trangenic) were maintained in fish water until the 50% epiboly stage (5.25 hpf) and were transferred into wells of 24-well plate containing the inhibitors in fish water. The analysis for vascular defects was performed after the 24 hpf stage, and embryos were imaged using a fluorescence microscope.
Transgenic fish expressing EGFP in endothelial cells (Tg(flk1:EGFP)) were used to facilitate visualization of the developing vasculature. In control experiments embryos were treated with 0.1% DMSO (vehicle). At the time of analyses (24 hpf) developing vessels normally migrated from the lateral plate mesoderm to the midline and formed the vascular cord, subsequently forming the dorsal aorta and the posterior cardinal vein and followed by the formation of intersegmental vessels at designated branch points (FIG. 6b).

[8] = tested on: mouse aortic rings; assay: Aortic ring sprouting assay; assay type: cell-based
Procedure: Additionally, the effect of compounds 1d, 1f, 1h, 1i, 1g, 2 and 2a on cell proliferation, migration, tube formation, micro-vessel branching, and perivascular recruitment using an aortic ring sprouting assay. When slices of mouse aorta are cultured in collagen gels there is typically a lag phase for the first 4 days followed by linear sprouting of endothelial cells. By day 6, branching is observed. All the test compounds were initially assayed at 7.5 μM and the number of branch-points counted. When there was a severe effect (no visible sprouting), or when there was no apparent effect, other doses were tested to establish a dose-dependence. All of the compounds assayed were able to attenuate aortic ring sprouting. There was a strong reduction in initial sprouting and some attenuation of branching. With the exception of 2a, in all cases where there was sprouting, the length of sprouts was shorter than in the controls.
Endothelial cell migration can also be studied […] using the aortic ring assay in which sprouting angiogenesis is monitored by the formation of vascular sprouts outside the wall of mouse aortic rings incubated in collagen matrix and stimulated by VEGF (Gerhardt, H., et al. EXS, 3-15 (2005), hereby incorporated by reference in its entirety). Briefly, mice were obtained from the Cincinnati Children's veterinary service and handled according to the institutional animal care and use protocol. […] Mice were 4 to 6 weeks old female C57BL16, and aortic ring explants were cultured at 37° C. in a humidified incubator under a 5% CO2 atmosphere.
Each inhibitor was serially diluted (between 0.25 mM and 7.5 mM) to stocks of 1000× the working concentrations in sterile 100% DMSO in order to achieve an equal final concentration of DMSO (0.1% v/v) in all culture conditions. For the experiments, the compounds were diluted in EBM containing 2.5% FBS, penicillin/streptomycin and 20 ng/ml VEGF165 (R&D Systems, Minneapolis, Minn.). Each compound was applied from the first day of culture over a 10-day period with medium change every two days. In all experiments, the vehicle (DMSO, 0.1%) was used as control. The sprouting density was derived from counting the number of branches per ring, and the extent of angiogenic sprouting was estimated by measuring the total surface area covered by the vessels as illustrated in FIG. 7.

[9] = biological target: EYA3 (Homo sapiens (Human), UniProt Q99504); assay: pNPP assay, full-length human recombinant EYA3; assay type: biochemical; details: pNPP substrate, full-length EYA3
Text: The catalytic domain of mouse Eya3 (“ED”, comprising residues 223-510 of Eya3) was purified as described by Rayapureddi, J. P. et al. (FEBS Lett 580, 3853-3859 (2006), incorporated by reference in its entirety). For full-length Eya3 (“hEYA3”), human Eya3 isoform 2 (representing the major species identified in human cell lines by mass spectrometry, expressed as residues 127-573 of NM_001990, isoform 1) was sub-cloned into pDEST565 to express a poly-histidine-Glutathione-S-transferase (His-GST) tagged fusion protein with a TVMV protease site. The protein was purified by glutathione-S-transferase affinity chromatography followed by TVMV cleavage, Ni-NTA chromatography, and finally size exclusion chromatography. […]
The compounds were then tested using full-length human recombinant, purified EYA3 and pNPP as a substrate. Compounds were dissolved in DMSO and diluted as needed. […] Reactions were incubated at 30° C. for 30 minutes and quenched with 100 mM EDTA pH 10. IC50 values were then calculated directly from regression curves using PRISM software. All reported values are the mean of two independent experiments.

[10] = tested on: HUVEC cells; assay: Scratch wound healing assay, HUVEC; assay type: cell-based, human; details: counted 22 hours later
Procedure: Cells were plated and grown to confluency. Scratch wounds were made using a sterile pipette tip, the medium changed to remove any cellular debris, and fresh medium with either vehicle or test compound was introduced. The number of cells that migrated into the cleared space was counted 22 hours later.

[11] = tested on: HUVECs; assay: HUVEC cell viability assay (WST-8); assay type: cell-based, human; details: 3 days of exposure
Procedure: Additionally, a cell viability assay was conducted over 3 days of exposure to test compounds 1, 1a and 1g in order to assess both the possibility of immediate cellular toxicity as well as any effect on cell proliferation. HUVECs were seeded and equilibrated for 24 hours before addition of the test compounds. Cellular metabolic activity was measured at defined time-points using the tetrazolium dye WST-8 to quantify NAD(P)H-dependent cellular oxidoreductase enzyme activity.

Chain of EYA3 (Q99504 127-573): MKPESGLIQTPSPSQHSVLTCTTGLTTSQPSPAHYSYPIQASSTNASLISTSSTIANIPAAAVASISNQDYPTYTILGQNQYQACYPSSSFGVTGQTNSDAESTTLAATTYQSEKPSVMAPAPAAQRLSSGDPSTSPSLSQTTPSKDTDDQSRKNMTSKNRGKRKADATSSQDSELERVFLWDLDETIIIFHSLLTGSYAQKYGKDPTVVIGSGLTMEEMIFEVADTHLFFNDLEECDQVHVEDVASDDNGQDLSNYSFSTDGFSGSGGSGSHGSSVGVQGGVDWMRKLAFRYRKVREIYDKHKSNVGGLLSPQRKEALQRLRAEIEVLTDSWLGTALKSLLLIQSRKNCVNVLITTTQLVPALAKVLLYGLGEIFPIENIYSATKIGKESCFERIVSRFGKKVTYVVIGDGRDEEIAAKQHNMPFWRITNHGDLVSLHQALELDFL
Chain of PTP1B (P18031 whole entry, species assumed, the tested form may be a part): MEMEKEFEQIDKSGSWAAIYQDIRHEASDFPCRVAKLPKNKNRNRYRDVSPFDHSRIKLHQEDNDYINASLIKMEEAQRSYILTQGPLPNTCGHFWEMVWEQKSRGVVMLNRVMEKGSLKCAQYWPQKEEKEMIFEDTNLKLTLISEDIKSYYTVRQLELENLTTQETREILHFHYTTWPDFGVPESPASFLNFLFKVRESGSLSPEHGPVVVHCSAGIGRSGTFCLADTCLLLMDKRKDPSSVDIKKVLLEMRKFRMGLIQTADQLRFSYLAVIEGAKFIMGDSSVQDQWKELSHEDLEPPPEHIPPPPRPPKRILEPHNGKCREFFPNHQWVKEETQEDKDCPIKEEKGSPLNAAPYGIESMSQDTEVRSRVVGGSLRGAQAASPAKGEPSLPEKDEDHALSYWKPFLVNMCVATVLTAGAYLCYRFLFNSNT

SMILES | IC50 [9] [µM] | tube formation on Matrigel [1] | other results
CCCCc1oc2ccccc2c1C(=O)c1ccc(O)cc1 [Compound 1b] | – | – | tubulogenesis inhibition ([1]; 7.5 μM): effective at the highest concentrations tested; formation of neovascular tufts [2]: Significant reduction in the formation of neovascular tufts; HUVEC cell motility [3]: attenuated HUVEC cell motility; cell migration [4]: significantly inhibited cell migration; HUVEC cell proliferation [5]: no effect on cell proliferation; IC50 [6]: 71.4 µM; intersegmental vessels in zebrafish embryos [7]: reduced the number of intersegmental vessels, but were less potent; sprout length and microvascular density of aortic rings ([8]; 5 μM, 10 days): shorter sprouts and significantly lower microvascular density
CCc1oc2ccccc2c1C(=O)c1cc(I)c(O)c(I)c1 [Compound 1c] | 3.4 | – | –
Cc1oc2ccccc2c1C(=O)c1cc(I)c(O)c(I)c1 [Compound 1d] | 8.3 | did not show significant attenuation of tube formation | –
CC(O)Cc1oc2ccccc2c1C(=O)c1cc(I)c(O)c(I)c1 (centres unmarked) [Compound 1e] | 13.8 | – | –
Cc1oc2ccccc2c1C(=O)c1ccc(O)c(I)c1 [Compound 1f] | 17.5 | did not show significant attenuation of tube formation | –
CCc1oc2cc(O)ccc2c1C(=O)c1cc(Br)c(O)c(Br)c1 [Compound 1g] | 27.2 | much stronger inhibitory effect than compound 1a | reduction of cell migration [10]: ~80%; reduction in cell proliferation [11]: over 50%; aortic ring sprouting ([8]; initially assayed at 7.5 μM): most potent inhibitor
CCc1oc2ccc(O)cc2c1C(=O)c1cc(Br)c(O)c(Br)c1 [Compound 1h] | 40.8 | did not show significant attenuation of tube formation | –
CC(O)c1oc2ccccc2c1C(=O)c1cc(Br)c(O)c(Br)c1 (centres unmarked) [Compound 1i] | 41.9 | – | –
CCc1oc2ccc(O)cc2c1C(=O)c1ccc(O)cc1 [Compound 1j] | 73.1 | – | –
Cc1oc2ccccc2c1C(=O)c1ccc(O)cc1 [Compound 1k] | 81.1 | – | –
CCCCc1oc2ccccc2c1C(=O)c1cc(I)c(O)c(I)c1 [Compound 2] | – | did not show significant attenuation of tube formation | –
CC(O)CCc1oc2ccccc2c1C(=O)c1cc(I)c(O)c(I)c1 (centres unmarked) [Compound 2a] | – | did not show significant attenuation of tube formation | –
